Earlier results, collected in patent publication US20230010484A1, “METHOD FOR THE DECOLORIZATION OF KERATIN MATERIAL THAT HAS BEEN DYED USING A PIGMENT” (Henkel AG & Co. KGaA, priority 2019, published 2023).

Settings: 25° C.

| Compound | solubility in water | solubility in water (in words) |
| --- | --- | --- |
| O=S(=O)([O-])c1ccc(N=Nc2c(O)ccc3ccccc23)cc1.[Na+] [Acid Orange 7, sodium salt of 4-[(2-hydroxy-1-naphthyl)azo]benzene sulphonate] | more than 7 g/L |  |
| Nc1cc(S(=O)(=O)[O-])cc2cc(S(=O)(=O)[O-])c(N=Nc3ccccc3)c(O)c12.[Na+].[Na+] [Acid Red 33, dinatrium salt of 5-amino-4-hydroxy-3-(phenylazo)-naphthalene-2,7-disulphonate] | about 2.5 g/L |  |
| O=C([O-])C1=NN(c2ccc(S(=O)(=O)[O-])cc2)C(=O)C1N=Nc1ccc(S(=O)(=O)[O-])cc1.[Na+].[Na+].[Na+] (stereo not shown) [Acid Yellow 23, trisodium salt of 4,5-dihydro-5-oxo-1-(4-sulfophenyl)-4-((4-sulfophenyl)azo)-1H-pyrazole-3-carboxylic acid] |  | highly soluble |
| O=C([O-])c1c(Cl)c(Cl)c(Cl)c(Cl)c1-c1c2c(Br)cc(=O)c(Br)c-2oc2c(Br)c(O)cc(Br)c12.O=C([O-])c1c(Cl)c(Cl)c(Cl)c(Cl)c1-c1c2c(Br)cc(=O)c(Br)c-2oc2c(Br)c(O)cc(Br)c12.[Na+].[Na+] [Acid Red 92, disodium salt of 3,4,5,6-tetrachloro-2-(1,4,5,8-tetrabromo-6-hydroxy-3-oxoxanthen-9-yl)benzoic acid] | greater than 10 g/L |  |
